ChEMBL document CHEMBL1152067, “Design and syntheses of 4-acylaminopyridine derivatives: Novel high affinity choline uptake enhancers I” (Bioorg Med Chem Lett, 1995)

What was measured:
Conditions in all cases: Hippocampus
[1] = biological target: High-affinity choline transporter 1 (Rattus norvegicus) (UniProt Q9JMD7); assay: Effect on uptake amount of [3H]choline in the hippocampal synaptosomes of AF64A-treated rats at a concentration of 10e-7 M.
[2] = biological target: High-affinity choline transporter 1 (Rattus norvegicus) (UniProt Q9JMD7); assay: Effect on uptake amount of [3H]choline in the hippocampal synaptosomes of AF64A-treated rats at a concentration of 10e-6 M.
[3] = biological target: High-affinity choline transporter 1 (Rattus norvegicus) (UniProt Q9JMD7); assay: Effect on uptake amount of [3H]choline in the hippocampal synaptosomes of AF64A-treated rats at a concentration of 10e-5 M.

Sequence of High-affinity choline transporter 1 (Rattus norvegicus) (Q9JMD7 whole entry, looked up): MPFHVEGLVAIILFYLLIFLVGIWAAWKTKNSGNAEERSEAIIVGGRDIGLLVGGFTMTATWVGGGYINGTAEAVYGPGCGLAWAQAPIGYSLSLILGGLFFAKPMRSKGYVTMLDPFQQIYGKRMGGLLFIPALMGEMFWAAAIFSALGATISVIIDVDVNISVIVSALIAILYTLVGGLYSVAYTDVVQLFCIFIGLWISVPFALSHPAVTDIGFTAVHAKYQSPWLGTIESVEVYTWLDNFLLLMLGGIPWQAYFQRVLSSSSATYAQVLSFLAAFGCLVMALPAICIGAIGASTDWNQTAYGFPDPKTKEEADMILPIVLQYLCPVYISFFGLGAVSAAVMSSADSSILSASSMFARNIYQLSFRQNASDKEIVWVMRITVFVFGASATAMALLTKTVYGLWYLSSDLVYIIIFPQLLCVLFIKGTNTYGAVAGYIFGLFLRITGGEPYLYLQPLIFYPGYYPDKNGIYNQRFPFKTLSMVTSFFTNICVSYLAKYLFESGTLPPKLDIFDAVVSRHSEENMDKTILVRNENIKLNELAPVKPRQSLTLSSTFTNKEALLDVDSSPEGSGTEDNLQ

| SMILES | HACU improvement [1] | HACU improvement [2] | HACU improvement [3] |
| --- | --- | --- | --- |
| O=C(Cn1ccnc1)Nc1c2c(nc3ccccc13)CCCC2 | 6% | 14% | 48% |
| CC(NCC(=O)Nc1c2c(nc3ccccc13)CCCC2)C(=O)O (stereo not given) | -7% | 6% | 13% |
| O=C(CN1CCCC1)Nc1c2c(nc3ccccc13)CCCC2 | 1% | -20% | -71% |
| O=C(O)CNCC(=O)Nc1c2c(nc3ccccc13)CCCC2 | -4% | -2% | 27% |
| O=C1CN(CC(=O)Nc2c3c(nc4ccccc24)CCCC3)C(=O)N1 | 15% | 11% | 10% |
| CC(C)CC(=O)Nc1c2c(nc3ccccc13)CCCC2 | 4% | -22% | 0% |
| O=C(CN1CCNC1=O)Nc1c2c(nc3ccccc13)CCCC2 | 6% | 1% | 25% |
| CC1C(=O)NC(=O)N1CC(=O)Nc1c2c(nc3ccccc13)CCCC2 (stereo not given) | 4% | 2% | 11% |
| CC(C)C(=O)Nc1c2c(nc3ccccc13)CCCC2 | 12% | 9% | 15% |
| O=C(CN1CCCCC1=O)Nc1c2c(nc3ccccc13)CCCC2 | -3% | 2% | 5% |
| O=C(CN1CCCC1=O)Nc1c2c(nc3ccccc13)CCCC2 | 17% | 14% | 13% |
| Nc1c2c(nc3ccccc13)CCCC2 | 8% | 8% | -13% |
| CCCCCC(=O)Nc1c2c(nc3ccccc13)CCCC2 | 11% | 5% | 2% |
| O=C(CN1C(=O)CNC1=O)Nc1c2c(nc3ccccc13)CCCC2 | -5% | 0% | 16% |

More lines, now with the values ahead:

| HACU improvement [1] | HACU improvement [2] | HACU improvement [3] | SMILES |
| --- | --- | --- | --- |
| 13% | 24% | 28% | CCCC(=O)Nc1c2c(nc3ccccc13)CCCC2 |
| -12% | -10% | -11% | CC(=O)Nc1c2c(nc3ccccc13)CCCC2 |
| 8% | 18% | 21% | CNCC(=O)Nc1c2c(nc3ccccc13)CCCC2 |
| 3% | 1% | 3% | CCC(=O)Nc1c2c(nc3ccccc13)CCCC2 |
| -2% | -1% | 18% | CCCCC(=O)Nc1c2c(nc3ccccc13)CCCC2 |
| 0% | -13% | -7% | CN(C)CC(=O)Nc1c2c(nc3ccccc13)CCCC2 |
